{"source": "patent US20250352553A1", "about": "“TREATMENT OF HOSPITAL-ACQUIRED BACTERIAL PNEUMONIA AND VENTILATOR-ASSOCIATED BACTERIAL PNEUMONIA CAUSED BY SUSCEPTIBLE ISOLATES OF ACINETOBACTER BAUMANNII-CALCOACETICUS COMPLEX” (Entasis Therapeutics, Inc., priority 2024, published 2025)", "key": {"[1]": {"tested_on": "Acinetobacter baumannii-calcoaceticus complex", "assay_type": "in vivo, human", "conditions": "Part A, CRABC m-MITT Population", "experimental": "The Phase 3 trial employed a non-inferiority design, as discussed and agreed with the FDA DAI. A Test of Cure (TOC) visit was completed 7±2 days after the last dose, and survival was assessed at Day 28.\nPatients were treated with either XACDURO® (1 g sulbactam and 1 g durlobactam, or renally adjusted dose) intravenously over 3 hours every 6 hours (n=91) or colistin 2.5 mg/kg (or renally adjusted dose) intravenously over 30 minutes every 12 hours after an initial loading dose of colistin 2.5 to 5 mg/kg (n=86). Both treatment arms also received 1 g imipenem/1 g cilastatin (or renally adjusted dose) intravenously every 6 hours as background therapy for potential HABP/VABP pathogens other than Acinetobacter baumannii-calcoaceticus complex. Patients received up to 14 days of therapy.\nPart A was a randomized, assessor-blinded, comparative portion of the Phase 3 trial. Patients were randomized (1:1) to 1.0 g sulbactam/1.0 g durlobactam or 2.5 mg/kg colistin. All patients in both treatment groups received 1.0 g imipenem/1.0 g cilastatin as background therapy to treat non-ABC co-infecting pathogens.\nRandomization was stratified by infection type (HABP/VABP/ventilated pneumonia [VP] vs bacteremia), severity of illness, and geography.\nEligible patients were ≥18 years of age with a diagnosis of a serious infection caused by ABC as either a single pathogen or member of a polymicrobial infection confirmed by culture.\nNon-inferiority was concluded if the upper limit of the 2-sided 95% CI was <20%.\nSecondary efficacy endpoints for Parts A and B included: 28-day all-cause mortality in the m-MITT and ITT Populations, 14-day all-cause mortality in the CRABC m-MITT and m-MITT Populations, Clinical cure at TOC, End of Treatment (EOT), and Late Follow-Up (LFU) in the CRABC m-MITT Population, and Microbiological favorable assessment at TOC, EOT, and LFU in the CRABC m-MITT Population."}, "[2]": {"conditions": "in vivo", "quoted_text": "The modified RIFLE criteria includes: Risk (R): increased creatinine level 1.5× or glomerular filtration rate (GFR) decreased >25%, • Injury (I): increased creatinine level 2× or GFR decreased >50%, Failure (F): increased creatinine level 3×, GFR decreased >75%, or creatinine level ≥4 mg/dL, Loss (L): persistent acute renal failure or complete loss of function for >4 weeks, and End-Stage Kidney Disease (ESKD; E): ESKD for >3 months."}, "[3]": {"tested_on": "Acinetobacter baumannii-calcoaceticus complex", "conditions": "colistin-based therapy, cited from earlier work"}}}
{"substance": "colistin", "values": [{"measurement": "28-day all-cause mortality", "setting": "[1]", "result": 32.3, "unit": "%"}, {"measurement": "clinical cure rate at TOC", "setting": "[1]; Test of Cure visit", "result": 40.3, "unit": "%"}, {"measurement": "microbiological favorable assessment at TOC", "setting": "[1]; eradication and presumed eradication", "result": 41.9, "unit": "%"}, {"measurement": "incidence of nephrotoxicity (modified RIFLE criteria)", "setting": "[2]", "result": 37.6, "unit": "%"}, {"measurement": "mortality rate, random effects analysis", "setting": "[3]; literature review, DerSimonian and Laird, 95% CI 32%, 47%", "result": 40, "unit": "%"}, {"measurement": "mortality rate, fixed effects analysis", "setting": "[3]; literature review, 95% CI 35%, 45%", "result": 40, "unit": "%"}, {"measurement": "mortality rate, random effects meta-analysis updated with 4 additional studies", "setting": "[3]; 95% CI 36%, 47%", "result": 41, "unit": "%"}]}
